Data as given in BindingDB's records for doi:10.1021/acs.jmedchem.1c00511 (2021).

Target: Vitamin K-dependent protein C (Homo sapiens) (UniProt P04070)
Experiment: Inhibition of human APC using pyroGlu-Pro-Arg-p-nitroaniline-HCl as substrate measured after 5 mins by plate reader analysis

Vitamin K-dependent protein C (Homo sapiens), sequence (P04070 whole entry, looked up): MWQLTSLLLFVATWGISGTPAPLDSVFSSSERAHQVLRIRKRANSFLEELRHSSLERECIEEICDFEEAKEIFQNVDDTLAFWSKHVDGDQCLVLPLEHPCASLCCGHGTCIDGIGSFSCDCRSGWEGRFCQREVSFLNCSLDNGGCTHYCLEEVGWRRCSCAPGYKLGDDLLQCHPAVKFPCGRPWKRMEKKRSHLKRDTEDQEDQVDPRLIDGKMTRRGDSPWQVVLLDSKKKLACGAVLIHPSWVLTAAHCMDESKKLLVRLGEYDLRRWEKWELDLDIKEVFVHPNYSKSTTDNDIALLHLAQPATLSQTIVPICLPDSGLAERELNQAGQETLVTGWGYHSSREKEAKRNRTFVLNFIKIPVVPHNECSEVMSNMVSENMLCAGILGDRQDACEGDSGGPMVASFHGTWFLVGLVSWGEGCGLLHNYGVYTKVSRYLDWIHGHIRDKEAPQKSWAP

## N#Cc1cccc(C(NCC2CC2)c2ccc(F)c(NC(=O)c3cc(C(F)(F)F)nn3-c3cccc(CN)c3)c2)c1 (single isomer, unassigned; (+)) [(+)-1-(3-(aminomethyl)phenyl)-N-(5-((3-cyanophenyl)(cyclopropyl-methylamino)methyl)-2-fluorophenyl)-3-(trifluoromethyl)-1H-pyrazole-5-carboxamide]
  IC50: > 30 µM
